Laboratory results published in ChEMBL document CHEMBL4261580, “Novel antitumor compound optimized from natural saponin Albiziabioside A induced caspase-dependent apoptosis and ferroptosis as a p53 activator through the mitochondrial pathway” (Eur J Med Chem, 2018).
Calls of active or inactive are those of the source. The rule behind the calls is not given here.

Legend:
[1] = system: HCT-116; experiment: Antiproliferative activity against human HCT116 cells after 72 hrs by MTT assay; type: functional, cell-based; details: HCT-116, 72 h
[2] = system: HepG2; experiment: Antiproliferative activity against human HepG2 cells after 72 hrs by MTT assay; type: functional, cell-based; details: HepG2, 72 h
[3] = Antiproliferative activity against human CCD-841 cells after 72 hrs by MTT assay; type: cell-based; details: CCD-841, 72 h
[4] = system: Bel-7402; experiment: Antiproliferative activity against human Bel7402 cells after 72 hrs by MTT assay; type: functional, cell-based; details: Bel-7402, 72 h
[5] = system: HCT-8; experiment: Antiproliferative activity against human HCT8 cells after 72 hrs by MTT assay; type: functional, cell-based; details: HCT-8, 72 h
[6] = system: HCT-116; experiment: Induction of apoptosis in human HCT116 cells assessed as late apoptotic cells at 1.25 uM after 72 hrs by Annexin V-FITC/propidium iodide staining-based flow cytometric analysis (reference value: 1.08%); type: functional
[7] = system: HCT-116; experiment: Induction of apoptosis in human HCT116 cells assessed as early apoptotic cells at 1.25 uM after 72 hrs by Annexin V-FITC/propidium iodide staining-based flow cytometric analysis (reference value: 5.30%); type: functional
[8] = system: HCT-116; experiment: Induction of apoptosis in human HCT116 cells assessed as late apoptotic cells at 5 uM after 72 hrs by Annexin V-FITC/propidium iodide staining-based flow cytometric analysis (reference value: 1.08%); type: functional
[9] = system: HCT-116; experiment: Induction of apoptosis in human HCT116 cells assessed as early apoptotic cells at 5 uM after 72 hrs by Annexin V-FITC/propidium iodide staining-based flow cytometric analysis (reference value: 5.30%); type: functional
[10] = system: HCT-116; experiment: Induction of apoptosis in human HCT116 cells after 72 hrs by Annexin V-FITC/propidium iodide staining-based flow cytometric analysis; type: functional, cell-based
[11] = system: HCT-116; experiment: Disruption of mitochondrial membrane potential in human HCT116 cells assessed as intact mitochondrial membrane at 1.25 uM after 72 hrs by JC1 staining-based flow cytometry method (reference value: 0.33%); type: functional
[12] = system: HCT-116; experiment: Disruption of mitochondrial membrane potential in human HCT116 cells assessed as collapse of mitochondrial membrane potential at 5 uM after 72 hrs by JC1 staining-based flow cytometry method (reference value: […]); type: functional
[13] = system: HCT-116; experiment: Induction of intracellular ROS generation in human HCT116 cells at 0.31 uM after 72 hrs by DCF-DA-dye based fluorescence microscopy (reference value: 2.74%); type: functional
[14] = system: HCT-116; experiment: Induction of intracellular ROS generation in human HCT116 cells at 5 uM after 72 hrs by DCF-DA-dye based fluorescence microscopy (reference value: 2.74%); type: functional
[15] = system: HCT-116; experiment: Induction of intracellular ROS generation in human HCT116 cells after 72 hrs by DCF-DA-dye based fluorescence microscopy; type: functional, cell-based
[16] = molecular target: Cellular tumor antigen p53 (Homo sapiens) (UniProt P04637); experiment: Activation of p53 in human HCT116 cells assessed as downregulation of Bcl2 expression up to 5 uM after 48 hrs by Western blot analysis; type: cell-based
[17] = molecular target: Cellular tumor antigen p53 (Homo sapiens) (UniProt P04637); experiment: Activation of p53 in human HCT116 cells assessed as increase in cytochrome-c expression up to 5 uM after 48 hrs by Western blot analysis; type: cell-based
[18] = system: HCT-116; experiment: Effect on caspase-8 expression in human HCT116 cells up to 5 uM after 48 hrs by Western blot analysis; type: functional, cell-based
[19] = molecular target: Cellular tumor antigen p53 (Homo sapiens) (UniProt P04637); experiment: Activation of p53 in human HCT116 cells assessed as increase in caspase-9 level up to 5 uM after 48 hrs by Western blot analysis; type: cell-based
[20] = system: HCT-116; experiment: Cytotoxicity against human HCT116 cells transfected with p53-siRNA up to 5 uM after 72 hrs by MTT assay; type: functional, cell-based
[21] = system: HCT-116; experiment: Cytotoxicity in human HCT116 cells pretreated with DFO followed by compound addition up to 5 uM measured after 72 hrs by MTT assay; type: functional, cell-based
[22] = system: HCT-116; experiment: Cytotoxicity in human HCT116 cells pretreated with Fe2+ followed by compound addition up to 5 uM measured after 72 hrs by MTT assay; type: functional, cell-based
[23] = system: HCT-116; experiment: Cytotoxicity in human HCT116 cells pretreated with Fe3+ followed by compound addition up to 5 uM measured after 72 hrs by MTT assay; type: functional, cell-based
[24] = system: HCT-116; experiment: Cytotoxicity against human HCT116 cells pretreated with K+ followed by compound addition up to 5 uM measured after 72 hrs by MTT assay; type: functional, cell-based
[25] = system: HCT-116; experiment: Cytotoxicity against human HCT116 cells pretreated with Cu2+ followed by compound addition up to 5 uM measured after 72 hrs by MTT assay; type: functional, cell-based
[26] = system: HCT-116; experiment: Cytotoxicity against human HCT116 cells pretreated with Ca2+ followed by compound addition up to 5 uM measured after 72 hrs by MTT assay; type: functional, cell-based
[27] = system: HCT-116; experiment: Induction of lipid peroxidation in human HCT116 cells assessed as increase in MDA levels up to 5 uM; type: functional
[28] = system: HCT-116; experiment: Antitumor activity against human HCT116 cells xenografted in BALB/c nude mouse assessed as decrease in tumor size at 20 mg/kg, iv administered once per day for 14 days and measured every 2 days; type: functional; design: scale not given: the % may be the effect or the level left
[29] = system: Mus musculus; experiment: Toxicity in BALB/c nude mouse xenografted with human HCT116 cells assessed as abnormality in spleen at 10 to 20 mg/kg, iv administered once per day by hematoxylin and eosin staining-based microscopic method; type: organism-based; details: in vivo
[30] = system: Mus musculus; experiment: Toxicity in BALB/c nude mouse xenografted with human HCT116 cells assessed as abnormality in lung at 10 to 20 mg/kg, iv administered once per day by hematoxylin and eosin staining-based microscopic method; type: organism-based; details: in vivo

Chain of Cellular tumor antigen p53 (Homo sapiens) (P04637 whole entry, looked up): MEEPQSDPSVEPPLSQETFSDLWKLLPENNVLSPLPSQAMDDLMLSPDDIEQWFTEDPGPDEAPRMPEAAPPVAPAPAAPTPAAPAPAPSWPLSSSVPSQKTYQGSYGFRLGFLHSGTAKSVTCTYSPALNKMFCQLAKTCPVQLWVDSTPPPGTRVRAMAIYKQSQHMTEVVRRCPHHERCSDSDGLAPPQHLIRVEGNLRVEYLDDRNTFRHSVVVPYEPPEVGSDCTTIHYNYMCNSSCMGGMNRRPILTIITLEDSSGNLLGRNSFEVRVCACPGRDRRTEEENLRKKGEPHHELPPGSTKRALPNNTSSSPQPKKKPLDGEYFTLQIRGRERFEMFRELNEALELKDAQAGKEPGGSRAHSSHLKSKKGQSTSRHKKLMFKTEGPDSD

IC50 [1]: 5.19 µM
IC50 [2]: 6.5 µM
IC50 [4]: 5.21 µM
IC50 [5]: 6.78 µM
Activity [16]: Active
Activity [17]: Active
Activity [19]: Active
SMILES: CC(=O)N[C@H]1[C@H](O[C@H]2CC[C@]3(C)[C@H]4CC=C5[C@@H]6CC(C)(C)CC[C@]6(C(=O)OCc6cn(-c7cccc(C(C)=O)c7)nn6)CC[C@@]5(C)[C@]4(C)CC[C@H]3C2(C)C)O[C@H](CO[C@@H]2OC[C@H](O)[C@H](O)[C@@H]2O)[C@@H](O)[C@@H]1O
IC50 [3]: 27.8 µM
Activity [6]: 26.18%
Activity [7]: 3.42%
Activity [8]: 20.33%
Activity [9]: 39.27%
Activity [10]: Dose-dependent effect
Activity [11]: 22.64%
Activity [12]: 59.87%
Activity [13]: 12.87%
Activity [14]: 29.71%
Activity [15]: Dose-dependent effect
Activity [18]: inactive
Activity [20]: inactive
Activity [21]: inactive
Activity [22]: Active
Activity [23]: Active
Activity [24]: Active
Activity [25]: Active
Activity [26]: Active
fold change (FC) [27]: >2
Activity [28]: 71.8%
Activity [29]: Non-Toxic
Activity [30]: Non-Toxic
